EP0983768A1, “MEDICINAL COMPOSITION FOR PREVENTION OR TREATMENT OF HEPATOPATHY” (Nippon Shinyaku Co., Ltd., priority 1997, dated 1998)
Marks after values point to notes of the source that are not given here.

Assays:
[1] = tested on: concanavalin A-induced hepatic damage in mice; assay: Inhibitory effect on concanavalin A-induced hepatic damage (plasma transaminase activities GOT, GPT); assay type: in vivo; settings: male BALB/c mice; for Inhibition rate (%) i.p. GOT / Inhibition rate (%) p.o. GOT: plasma GOT 24 hours after con A; for Inhibition rate (%) i.p. GPT / Inhibition rate (%) p.o. GPT: plasma GPT 24 hours after con A
Description: The hepatic damage inhibitory effect of the adenosine A2 receptor agonist of the invention can be verified by a test using mice as described below. Among the various animal models proposed for the evaluation of hepatic damage inhibitory activity, the disease model used in this test resembles human hepatitis in the mechanism of onset. Using 6-weeks old male BALB/c mice in groups of 17-20, the test drug was administered intraperitoneally or orally. At 30 minutes after intraperitoneal administration of the test drug or 1 hour after oral administration, 0.6 mg of concanavalin A (con A) was administered intravenously to each animal to induce hepatic damage. At 24 hours after administration of con A, plasma transaminase activities [GOT (glutamic-oxaloacetic transaminase), GPT (glutamic-pyruvic transaminase)] were determined. The plasma transaminase activity inhibition rate in each group given a test drug relative to the control group was calculated by means of the following equation. Inhibition rate (%) = [(C-D)/C] × 100 [formula] where C represents the mean value of plasma transaminase activity in the control group and D represents the mean value of plasma transaminase activity in the group given a test drug.

ICR mice = settings: 1000 mg/kg orally, 7-8 weeks old; cited from earlier work
[2] = 0.3 mg/kg i.p. 30 minutes before con A
[3] = 3 mg/kg i.p. 30 minutes before con A
[4] = 3 mg/kg p.o. 1 hour before con A
[5] = 1 mg/kg i.p. 30 minutes before con A
[6] = 1 mg/kg p.o. 1 hour before con A

Compound	Inhibition rate (%) i.p. GOT [1, 2]	Inhibition rate (%) i.p. GPT [1, 2]	Inhibition rate (%) i.p. GOT [1, 3]	Inhibition rate (%) i.p. GPT [1, 3]	Inhibition rate (%) p.o. GOT [1, 4]	Inhibition rate (%) p.o. GPT [1, 4]	Inhibition rate (%) i.p. GOT [1, 5]	Inhibition rate (%) i.p. GPT [1, 5]	Inhibition rate (%) p.o. GOT [1, 6]	Inhibition rate (%) p.o. GPT [1, 6]	death (ICR mice)
CCNC(=O)[C@H]1O[C@@H](n2cnc3c(N)nc(NCCc4ccc(CCC(=O)O)cc4)nc32)[C@H](O)[C@@H]1O [Compound 1, 1-[6-amino-2-[(2-(4-(2-carboxyethyl)phenyl)-ethyl)amino]-9H-purin-9-yl]-1-deoxy-N-ethyl-β-D-ribofuranuronamide]	85** %	88** %	93** %	98** %	64* %	58* %	–	–	–	–	–
Nc1nc(Nc2ccccc2)nc2c1ncn2[C@@H]1O[C@H](CO)[C@@H](O)[C@H]1O [Compound 2, 2-(phenylamino)adenosine]	61** %	65** %	–	–	–	–	81** %	91** %	–	–	–
COc1cc(OC)cc(C(CNc2ncnc3c2ncn3[C@@H]2O[C@H](CO)[C@@H](O)[C@H]2O)c2ccccc2C)c1 (stereo partly shown) [Compound 3, N^6-[2-(3,5-dimethoxyphenyl)-2-(2-methylphenyl)ethyl]adenosine]	61** %	60** %	83** %	87** %	86** %	88** %	–	–	–	–	–
Nc1ncnc2c1ncn2[C@@H]1O[C@H](C(=O)NC2CC2)[C@@H](O)[C@H]1O [Compound 4, 1-(6-amino-9H-purin-9-yl)-1-deoxy-N-cyclopropyl-β-D-ribofuranuronamide]	–	–	–	–	–	–	–	–	49** %	56** %	–
CCCCCCC#Cc1nc(N)c2ncn([C@@H]3O[C@H](CO)[C@@H](O)[C@H]3O)c2n1 [Compound 5, 2-(1-octyn-1-yl)adenosine]	90** %	96** %	91** %	96** %	93** %	97** %	–	–	–	–	no death was encountered
